This note sets out measurements from patent US20250346584A1, “NOVEL KAPPA OPIOID LIGANDS” (The Scripps Research Institute, priority 2012, published 2025).

Some results are limits rather than exact numbers.

The target in one experiment is kappa opioid receptor (OPRK1) (Homo sapiens (Human), UniProt P41145). Put plainly: OPRK1 antagonist assay (b-arrestin-2-TEV / b-lactamase reporter cell line, EC80 U-50488 challenge). In kind it is cell-based. The settings on record: % inhibition at the concentration given.
kappa opioid receptor (OPRK1), sequence (P41145 whole entry): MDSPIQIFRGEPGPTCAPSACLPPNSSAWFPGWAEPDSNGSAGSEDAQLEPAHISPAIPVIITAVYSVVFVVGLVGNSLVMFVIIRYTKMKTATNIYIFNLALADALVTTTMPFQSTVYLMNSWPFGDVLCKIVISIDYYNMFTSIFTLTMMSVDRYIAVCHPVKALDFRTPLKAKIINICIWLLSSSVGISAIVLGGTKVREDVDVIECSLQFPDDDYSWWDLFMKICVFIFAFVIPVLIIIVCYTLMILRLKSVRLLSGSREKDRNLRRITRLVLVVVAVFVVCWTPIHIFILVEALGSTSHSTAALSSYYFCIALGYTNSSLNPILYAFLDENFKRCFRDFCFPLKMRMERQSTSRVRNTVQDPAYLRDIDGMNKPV
`CCOC(=O)c1c(Cl)cc(C)nc1N1CCC(N[C@@H]2CCCC[C@H]2O)CC1` [compound 2]: the “% inhib if other than 50%” value stood at 65%.

Still in this experiment, the particulars now being: read-out: IC50 nM (% inhib if other than 50%); antagonist mode vs EC80 U-50488; NA = not active at concentrations up to 10 μM.
On to `CO[C@H]1CN(c2nc3ccc(C)cc3cc2-c2nc(C)no2)CC[C@H]1NC1CCOCC1` [compound 500], for which the IC50 was 423 nM.

With `CCOC(=O)c1c(Cl)cc(C)nc1N1CCC(N[C@@H]2CCCC[C@H]2O)CC1` [compound 2], the IC50 came out at 4500 nM.

`COC1CCCCC1NC1CCN(c2nc3ccccc3cc2-c2nc(C)no2)CC1CO` (stereo not drawn) [compound 199]: the IC50 was 59 nM.

In the case of `COC1CN(c2nc3ccccc3cc2-c2nc(C)no2)CCC1NC1CCCCC1` (stereo not drawn) [compound 292], the IC50 turned out to be 33 nM.

For the compound `COC(=O)c1cccnc1N1CC[C@@H](NC2CCCCC2)[C@H](O)C1` [compound 148], the IC50 was determined as 5800 nM.

Turning to `COC1CN(c2nc3c(C)cccc3cc2-c2nc(C)no2)CCC1NC1CCCCC1` (stereo not drawn) [compound 276], the IC50 is 18 nM.

As to `CO[C@H]1CN(c2nc3ccc(C)cc3cc2-c2noc(C)n2)CC[C@H]1NC1CCCCC1` [compound 338], the IC50 stood at 0.99 nM.

`Cc1cc(-c2nc(C)no2)c(N2CCC(NC3CCCCC3)C(CO)C2)nn1` (stereo not drawn) [compound 180]: the IC50 was determined as 7 nM.

In the case of `CO[C@H]1CN(c2nc3ccc(C)cc3cc2-c2nc(C)no2)CC[C@H]1NC1CCCCC1` [compound 294], the IC50 was determined as 0.7 nM.

`COC1CN(c2nc(C)c(C)cc2-c2nc(C)no2)CCC1NC1CCCCC1` (stereo not drawn) [compound 165]: the IC50 amounted to 19 nM.

On to `Cc1noc(-c2cc3ccccc3nc2N2CCC(NC3CCCCC3)C2)n1` (stereo not drawn) [compound 212], for which the IC50 came out at 267 nM.

`CCOC(=O)c1cc(C(=O)OC)c(C)nc1N1CCC(NC2CCCCC2)CC1` [compound 92]: the IC50 came to 2600 nM.

Take `Cc1ccc2nc(N3CCC(NC4CCCCC4O)CC3)c(-c3noc(C)n3)cc2c1` (stereo not drawn) [compound 450]: the IC50 was 11 nM.

In the case of `COC1CN(c2nc3ccc(C)cc3cc2-c2nc(C)no2)CCC1NC1CCCCC1` (stereo not drawn) [compound 293], the IC50 amounted to 20 nM.

In the case of `Cc1noc(-c2cc3c(F)cccc3nc2N2CCC(NC3CCOCC3)CC2)n1` [compound 477], the IC50 was determined as 42 nM.

For `COC(=O)c1cc(I)cnc1N1CCC(NC2CCCCC2)C(O)C1` (stereo not drawn) [compound 126], the IC50 was found to be 112 nM.

For `CNC(=O)c1cc(Br)cnc1N1CCC(NC2CCCCC2)CC1` [compound 87], the IC50 was found to be 19000 nM.

On to `CCC1(CO)CN(c2nc3ccccc3cc2-c2nc(C)no2)CCC1NC1CCCCC1` (stereo not drawn) [compound 208], for which the IC50 worked out at 76 nM.

Take `Cc1noc(-c2cc3cc(F)ccc3nc2N2CCC(NC3CCCCC3)C(CO)C2)n1` (stereo not drawn) [compound 243]: the IC50 is 22 nM.

Consider `Cc1noc(-c2cc(C)c(C)nc2N2CC[C@H](NC3CCCCC3)[C@@H](O)C2)n1` [compound 543], for which the IC50 worked out at 32 nM.

Take `COC(=O)c1cc(Br)cnc1N1C2CCC1CC(NC1CCCCC1)C2` (stereo not drawn) [compound 15]: the IC50 is 7700 nM.

In the case of `O[C@@H]1CN(c2nc3ccccc3cc2-c2ncco2)CC[C@H]1NC1CCCCC1` [compound 218], the IC50 was determined as 475 nM.

For the compound `COC(=O)c1cc(N)cnc1N1CCC(NC2CCCCC2)CC1` [compound 85], the IC50 amounted to 1800 nM.

For the compound `CCOC(=O)c1cc(Br)cnc1N1CCC(NC2CCCC[C@@H]2O)CC1` (stereo partly drawn) [compound 8], the half-maximal inhibitory concentration (IC50) came out at 579 nM.

For `Cc1ccc2nc(N3CC[C@@H](NC4CCCCC4)[C@H](O)C3)c(-c3nc(C)no3)cc2c1` [compound 213], the IC50 amounted to 8.5 nM.

In the case of `COC(=O)c1cc(Br)cnc1N1CCC(NC2CCCCC2OC)CC1` (stereo not drawn) [compound 26], the IC50 came to 267 nM.

`CO[C@@H]1CN(c2nc3ccc(C)cc3cc2-c2nc(C)no2)CC[C@@H]1NC1CCOCC1` [compound 522]: the IC50 came to 67 nM.

For `COC(=O)c1cc(I)cnc1N1CCC(NC2CCCCC2)C1` (stereo not drawn) [compound 35], the IC50 turned out to be 88 nM.

`COC(=O)c1cc(Br)cnc1N1CCC(NC2CCCCC2)C(OC)C1` (stereo not drawn) [compound 73]: the IC50 came to 205 nM.

In the case of `CNC(=O)c1cc2cc(C)ccc2nc1N1CCC(NC2CCCCC2)C(OC)C1` (stereo not drawn) [compound 278], the IC50 was found to be 4720 nM.

As for `Cc1ccc2nc(N3CCC(NCC4CCCCC4O)CC3)c(-c3nc(C)no3)cc2c1` (stereo not drawn) [compound 352], the IC50 came out at 3.1 nM.

In the case of `COC(=O)c1cc(Br)cnc1N1CCC(OC2CCCC2O)CC1` (stereo not drawn) [C51], the IC50 is above 20000 nM.

Consider `CCc1noc(-c2cc(Br)cnc2N2CCC(NC3CCCCC3)CC2)n1` [compound 107], for which the IC50 was 11000 nM.

Take `Cc1cnc(N2CCC(NC3CCCCC3)C(CO)C2)c(C#N)c1` (stereo not drawn) [C68]: the IC50 is above 20000 nM.

On to `Cc1cnc(N2CCC(NC3CCCCC3)C(CO)C2)c(-c2ncco2)c1` (stereo not drawn) [compound 217], for which the IC50 amounted to 361 nM.

Consider `CO[C@H]1CN(c2nc3c(C)c(F)ccc3cc2-c2nc(C)no2)CC[C@H]1NC1CCCCC1` [compound 487], for which the IC50 was determined as 15 nM.

For the compound `CO[C@@H]1CN(c2nnc(C)cc2C(=O)OC(C)C)CC[C@@H]1NC1CCCCC1` [compound 404], the IC50 worked out at 63 nM.

On to `COC1CN(c2nc3ccccc3cc2-c2nc(C)no2)CCC1NC1CCOCC1` (stereo not drawn) [compound 325], for which the IC50 was found to be 8 nM.

Regarding `Cc1noc(-c2cc3c(nc2N2CCC(NC4CCCCC4)C(CO)C2)CCCC3)n1` (stereo not drawn) [compound 191], the IC50 came out at 420 nM.

In the case of `COC(=O)c1cc(-c2ccsc2)cnc1N1CCC(NC2CCCCC2)CC1` [compound 32], the IC50 worked out at 5300 nM.

`Cc1noc(-c2cc3ccc(F)cc3nc2N2CCC(NC3CCOCC3)CC2)n1` [compound 528]: the IC50 turned out to be 23 nM.

On to `Cc1ccc2nc(N3CCC(NC4CCOCC4)CC3)c(C(=O)OC(C)C)cc2c1` [compound 302], for which the IC50 was 274 nM.

For `CO[C@@H]1CN(c2nc3c(C)c(F)ccc3cc2-c2nc(C)no2)CC[C@@H]1NC1CCCCC1` [compound 492], the IC50 was found to be 74 nM.

On to `OCC1CN(c2nc3ccccc3cc2-c2ncccn2)CCC1NC1CCCCC1` (stereo not drawn) [compound 264], for which the IC50 is 56 nM.

In the case of `Cc1noc(-c2cc3cc(C)c(F)cc3nc2N2CCC(NCC(C)C)CC2)n1` [compound 498], the IC50 amounted to 33 nM.

For the compound `Cc1cc(-c2nc(C)no2)c(N2CCC(NC3CCOCC3)CC2)nn1` [compound 272], the IC50 was 8700 nM.

Take `COC1CN(c2nc3ccccc3cc2C2=NCC(C)O2)CCC1NC1CCCCC1` (stereo not drawn) [compound 258]: the IC50 is 7160 nM.

With `CO[C@H]1CN(c2nc3cc(F)ccc3cc2-c2nc(C)no2)CC[C@H]1NC1CCCCC1` [compound 508], the IC50 is 5 nM.

As to `COC(=O)c1cc(Br)cnc1N1CCC(NC2CCCC2)C(C(=O)OC)C1` (stereo not drawn) [compound 117], the IC50 was 3800 nM.

Turning to `Cc1ccc2nc(N3CCC(N[C@H]4CCCC[C@@H]4O)CC3)c(-c3ccncn3)cc2c1` [compound 516], the IC50 was found to be 564 nM.

As for `Cc1nc(-c2cc3cc(C)c(F)cc3nc2N2CCC(NC3CCCCC3)CC2)no1` [compound 495], the IC50 is 13 nM.

For `COC(=O)c1cc(Br)cnc1N1CCC(NC2CCCC2)C(CO)C1` (stereo not drawn) [compound 79], the IC50 was 25 nM.

For the compound `COC1CN(c2nc3ccc(Cl)cc3cc2-c2nc(C)no2)CCC1NC1CCCCC1` (stereo not drawn) [compound 240], the IC50 worked out at 14 nM.

On to `Cc1noc(-c2cc3ccc(F)cc3nc2N2CCC(NCC(C)C)CC2)n1` [compound 527], for which the IC50 stood at 20 nM.

Take `COC1CN(c2ncc(C)cc2-c2nc(C)no2)CCC1NC1CCCC1` (stereo not drawn) [compound 316]: the IC50 is 23 nM.

Take `COC(=O)c1cc(Br)cnc1N1CCC(NC2CCCCC2)C(OC)C1` (stereo not drawn) [compound 122]: the IC50 came to 125 nM.

For the compound `COC(=O)c1cc(Br)cnc1N1CCC(NC2CCCCC2C)C(O)C1` (stereo not drawn) [compound 58], the IC50 was determined as 419 nM.

For the compound `COC1CN(c2nc3cc(C)c(C)cc3cc2-c2nc(C)no2)CCC1NC1CCCCC1` (stereo not drawn) [compound 306], the IC50 is 107 nM.

Regarding `Cc1noc(-c2cc(C)c(C)nc2N2CC[C@@H](NC3CCCCC3)[C@H](O)C2)n1` [compound 154], the IC50 amounted to 146 nM.

For the compound `Cc1cnc(N2CCC(C)(NC3CCCCC3)CC2)c(-c2nc(C)no2)c1` [compound 357], the IC50 was determined as 22.3 nM.

For the compound `Cc1noc(-c2cc(Br)cnc2N2CCC(NC3CCCCC3)C(CO)C2)n1` (stereo not drawn) [compound 145], the IC50 was found to be 117 nM.

Consider `COC(=O)c1cc(I)cnc1N1CCC(NC2CCCCC2C)C(CO)C1` (stereo not drawn) [compound 89], for which the IC50 stood at 116 nM.

As for `COC(=O)c1cc(Br)cnc1N1CC(NC2CCCCC2)C1` [compound 67], the 50% inhibitory concentration (IC50) stood at 1400 nM.

Turning to `COC1CN(c2nc3ccc(C)cc3cc2-c2nc(C3CC3)no2)CCC1NCC(C)C` (stereo not drawn) [compound 376], the IC50 stood at 14 nM.

In the case of `COC(=O)c1cc(Br)cnc1N1CC2CN(C3CCCC3)CC2C1` (stereo not drawn) [compound 50], the IC50 was determined as 1000 nM.

For the compound `Cc1ccc2nc(N3CCC(NC4CCCCC4C)CC3)c(-c3nc(C)no3)cc2c1` (stereo not drawn) [compound 348], the IC50 came out at 1.3 nM.

Take `CCO/N=C/c1cc(Br)cnc1N1CCC(NC2CCCCC2)CC1` [compound 101]: the IC50 was determined as 4000 nM.

Regarding `COC(=O)c1cc([N+](=O)[O-])cnc1N1CCC(NC2CCCCC2)CC1` [compound 84], the IC50 was 6200 nM.

As for `COC1CN(c2ncc(C)cc2-c2cn(C)nn2)CCC1NC1CCCCC1` (stereo not drawn) [compound 392], the IC50 is 2960 nM.

For `CO[C@H]1CN(c2nc3cc(Cl)ccc3cc2-c2nc(C)no2)CC[C@H]1NC1CCCCC1` [compound 537], the IC50 was found to be 12 nM.

On to `COC(=O)c1cc(C)nnc1N1CC[C@@H](NC2CCCCC2)[C@H](O)C1` [compound 166], for which the concentration for half-maximal inhibition (IC50) stood at 32 nM.

As for `COC(=O)c1cc(Br)cnc1N1CCC(NC2CCCCC2)C(C(=O)OC)C1` (stereo not drawn) [compound 113], the 50% inhibitory concentration (IC50) was 2000 nM.

`COC(=O)c1cc(Br)cnc1N1CCC(NC2CCOCC2)C(O)C1` (stereo not drawn) [compound 61]: the IC50 was determined as 54 nM.

As to `CO[C@@H]1CN(c2nc3ccccc3cc2-c2cnc(C)cn2)CC[C@@H]1NC1CCCCC1` [compound 471], the IC50 worked out at 170 nM.

In the case of `Cc1nc(-c2cc3ccc(F)cc3nc2N2CCC(N[C@H]3CCCOC3)CC2)no1` [compound 486], the IC50 stood at 1070 nM.

`Cc1noc(-c2cc3c(F)cccc3nc2N2CCC(NCC(C)C)CC2)n1` [compound 526]: the IC50 came out at 49 nM.

For `CO[C@H]1CN(c2nc3ccc(F)cc3cc2-c2nc(C)no2)CC[C@H]1NCC(C)C` [compound 530], the half-maximal inhibitory concentration (IC50) amounted to 5100 nM.

The IC50 is the concentration needed to halve the response being measured.
